Source: patent publication US20240225985A1, “BRIGHTENING COMPOSITIONS AND METHODS OF USE” (Alastin Skincare, Inc., priority 2021, published 2024)
Ends that are not written are not given here. * marks the point of attachment. Palmitoyl = CCCCCCCCCCCCCCCC(=O)*

Legend:
melanocytes [1] = assay: In vitro melanocyte comparative analysis via absorbance readings (melanin production); format: cell-based; conditions: for Regulation of melanogenesis (decreased absorption denoting decreased melanin formation): melanocytes, summary of Table 10
Method: Melanocytes were cultured in 6-well plates containing growth media. Once confluent, 2 concentrations of each of the 10 compounds were added to the cells in triplicate wells for 4 days. There were a total of eleven 6-well plates, one for each compound treatment and one for the vehicle control. Absorbance readings were taken on the lysates prepared for each well of the 6-well plates, normalizing for cells counts. The model was initially tested for accuracy and validated using hexapeptide-12 in view of strong gene expression results with melanocyte cell line in the first study—confirmation of decreased stimulation was obtained. Additional validation was carried out using MSH addition to media to confirm increased stimulation of melanin production. The following compounds used in this study are seen in Table 9.

melanocytes [2] = assay: Gene expression study (RNA sequencing) in PGE2-induced melanocytes; format: cell-based, human; conditions: melanocytes induced with 10 uM PGE2, 24 hours of compound exposure
Method: Four cell types associated with pigmentation pathways—melanocytes, keratinocytes, fibroblasts and endothelial (HUVEC) cells—were analyzed for gene expression.
To simulate the UV stimulatory pigmentation pathway process, melanocytes were pre-treated with PGE2, a normal direct consequence of UV light exposure usually emanating from exposed keratinocytes. After the 48 hour attachment culture, these melanocytes were induced with 10 uM PGE2 in melanocyte media for 24 hrs. The four primary human adult dermal cell lines were cultured and plated in well plates in triplicate and then treated with 11 different compound treatments (plus DMSO control). After 48 hours of attachment culture, the remaining fibroblasts, HUVECs and keratinocytes were treated with the test compounds listed in Table 8.
After 24 hours of compound exposure, RNA lysate preparation was carried out and samples were shipped to MedGenome for RNA extraction, library construction and sequencing to 25M paired end 100 bp reads per sample. Library prep and sequencing was completed at MedGenome.

MITF = assay: In vitro MITF gene expression test in cultured fibroblasts; format: cell-based; conditions: 48 hours, 80 ppm Hexapeptide-12, 120 ppm Tripeptide-1 or blend of both, negative = downregulation
Method: Microphthalmia-associated transcription factor (MITF) is a master regulator of pigmentation and melanin transfer and a potential new target for hyperpigmentation and melanoma. In vitro MITF gene expression tests were carried out to ascertain differences between individual peptides (tripeptide-1 and hexapeptide-12) and their combination in terms of MITF downregulation.
Specifically, the tests were conducted by culturing fibroblasts and then adding tripeptide-1, hexapeptide-12, or a combination of both. After 48 hours, MITF gene expression was analyzed. […] This increased expression continued to manifest and increased even further at the 72 hour time point.

endothelial cells = assay: Gene expression of PMEL, tyrosinase genes, MC1/4R, EDNRB, MITF, ERK1/2, JNK, AKT1; format: cell-based; conditions: after treatment of endothelial cells as printed
Description: The methods similar to Examples 3-4 were used to measure expression of PMEL, tyrosinase genes, MC1/4R, EDNRB, MITF, ERK1/2, JNK, and ANKT1.
FIGS. 10A-10D illustrates the expression of PMEL (FIG. 10A), Tyrosinase genes (FIG. 10B), MC1/4R (FIG. 10C), and EDNRB (FIG. 10D) after treatment of endothelial cells with lactoferrin (Lacto), peptide derived from lactoferrin (TCV), hexapeptide-12 (Hex12), tripeptide-1 and hexapeptide-12 (TriHex), hexapeptide-11 (Hex11), tranexamic acid (Tran acid) octapeptide (Octa), phosphatidylserine (phos), Cannabidiol (CBD), and all (total).
MITF is regulated by phosphorylation. Specifically, the MAPK and Akt pathways are known to phosphorylate MITF at certain sites. FIGS. 12A-12C illustrate the expression of ERK1/2 (MAPK3/MAPK1) (FIG. 12A), JNK (FIG. 12B), AKT1 (FIG. 12C) after treatment of endothelial cells with lactoferrin (Lacto), peptide derived from lactoferrin (TCV), hexapeptide-12 (Hex12), tripeptide-1 and hexapeptide-12 (TriHex), hexapeptide-11 (Hex11), octapeptide (Octa), phosphatidylserine (phos), Cannabidiol (CBD), and all (total).

[3] = higher concentration (Lactoferrin 1000, HEX-11 200, Phosphatidylserine 500, Silymarin 20, Sesamol 100, Tranexamic Acid 1000, HEX-12 4.9, ug/mL or ug/uL; Phytoene/Phytofluene 5.00%), 4 days, control = 0.0 row
[4] = lower concentration (Lactoferrin 500, HEX-11 100, Phosphatidylserine 250, Silymarin 10, Sesamol 50, Tranexamic Acid 500, HEX-12 2.9, ug/mL or ug/uL; Phytoene/Phytofluene 2.50%), 4 days, control = 0.0 row

Compound | Absorbance 405 nm (melanocytes [1]; [3]) | Absorbance 490 nm (melanocytes [1]; [3]) | Absorbance 492 nm (melanocytes [1]; [3]) | Absorbance 405 nm (melanocytes [1]; [4]) | Absorbance 490 nm (melanocytes [1]; [4]) | Absorbance 492 nm (melanocytes [1]; [4]) | Regulation of melanogenesis (decreased absorption denoting decreased melanin formation) (melanocytes [1]) | melanogenic gene activity in melanocytes (melanocytes [2]) | melanogenic gene activity in melanocytes (melanocytes [2]; listed as hexapeptide-12) | MITF gene expression (down-/upregulation) (MITF) | melanogenic activity (expression of PMEL, tyrosinase genes, MC1/4R, EDNRB, kinases) (endothelial cells) | melanogenic activity (expression of PMEL, tyrosinase genes, MC1/4R, EDNRB, kinases) (endothelial cells; listed as hexapeptide-12) | Absorbance 405 nm (melanocytes [1]; MSH 10 nm media (validation of increased melanin production), control 1.649) | Absorbance 492 nm (melanocytes [1]; MSH 10 nm media, control 0.501) | Absorbance 490 nm (melanocytes [1]; MSH 10 nm media, control 0.971) | MITF gene expression (down-/upregulation) (MITF; listed as Tripeptide) | MITF gene expression (down-/upregulation) (MITF; listed as tripeptide-1)
Oc1ccc2c(c1)OCO2 [Sesamol, 3,4-Methylenedioxyphenol] | 0.465 | 0.252 | 0.183 | 0.602 | 0.361 | 0.24 | Regulation of melanogenesis was also observed | – | – | – | – | – | – | – | – | – | –
NC[C@H]1CC[C@H](C(=O)O)CC1 [Tranexamic Acid, Tranexamic acid] | 0.406 | 0.243 | 0.176 | 0.395 | 0.254 | 0.187 | Regulation of melanogenesis was also observed | – | – | – | – | – | – | – | – | – | –
Hexapeptide-12: hexapeptide-12; VGVAPG per Pal-VGVAPG (SEQ ID NO:25) in b49 (Palmitoyl-VGVAPG) | 0.96 | 0.64 | 0.46 | 1.32 | 0.94 | 0.64 | Regulation of melanogenesis was observed | particularly dominant in melanogenic activity | significant effects on melanogenesis activity | −1.16 | significant effects on such melanogenic activity | robust melanogenic activity | – | – | – | – | –
MSH: MSH addition to media to confirm increased stimulation of melanin production (SYSMEHFRWGKPV; ends and bridges not checked; UniProt P01189 138-150, looked up) | – | – | – | – | – | – | – | – | – | – | – | – | 1.921 | 0.573 | 1.155 | – | –
Tripeptide-1 | – | – | – | – | – | – | – | – | – | – | – | – | – | – | – | 1.72 | +1.72
